{
  "source": "patent US20220267445A1",
  "about": "“Methods and Compositions for Determining Susceptibility to Treatment with Checkpoint Inhibitors” (Novocure GmbH, priority 2021, published 2022)",
  "key": {"[1]": {"tested_on": "U87MG, LN428 and LN827 GBM cells", "assay": "TTFields-induced cytosolic micronuclei clusters with cGAS and AIM2 recruitment (immunofluorescence, confocal)", "type": "cell-based, human", "conditions": "ribociclib 4.5 μM", "procedure": "FIG. 1C, FIG. 1D, FIG. 1E, and FIG. 1F show exemplary confocal images with z stack showing immunofluorescent staining for cGAS, AIM2, and LAMINA/C with DAPI counter-staining in LN428 GBM cells that were pretreated with either the vehicle (FIG. 1C, FIG. 1E) or ribociclib (4.5 μM) (FIG. 1D, FIG. 1F) to induce G1 arrest, then non-treated (FIG. 1C, FIG. 1D) or treated with TTFields for 24 hours (FIG. 1E,\nFIG. 1G provides an exemplary bar graph showing percentages of cells with large cytosolic micronuclei clusters with cGAS and AIM2 recruitment being dependent on TTFields in the 3 indicated GBM cell lines treated as described with respect to FIG. 1C, FIG. 1D, FIG. 1E, and FIG. 1F;\nTo address this question, cells were pretreated for 24 hours prior to and during a 24 hour exposure to TTFields with ribociclib, a potent inhibitor of cyclin-dependent kinases 4 and 6, to induce G1 arrest^31 (FIG. 1H).\nCells grown on cover slips were fixed with 4% paraformaldehyde for 30 min at 4° C., incubated overnight at 4° C. with different combinations of primary antibodies (dilution 1:500) against indicated antigens and then for 2 hours at room temperature with appropriate fluorochrome-conjugated secondary antibodies, (dilution 1:500). Labeled cells were counterstained with DAPI (Thermo Fisher, Cat #D1306) at 1 μgm/ml and images captured and analyzed, using a Zeiss 800 inverted confocal microscope. […]"}, "LN428 cells": {"tested_on": "LN428 cells", "assay": "DNA content analysis by propidium iodide (PI) staining", "type": "cell-based, human", "conditions": "ribociclib 4.5 μM, 0 and 24 hours"}},
  "data": [
    {"smiles": "CN(C)C(=O)c1cc2cnc(Nc3ccc(N4CCNCC4)cn3)nc2n1C1CCCC1", "note": "[ribociclib]", "values": [
      {"measurement": "percentage of cells with cGAS and AIM2-recruited micronuclei clusters after TTFields, G1-arrested cells compared to cycling cells", "setting": "[1]; 24 hours prior to and during 24 hour TTFields (200 kHz), all 3 lines", "value": "consistently decreased"},
      {"measurement": "cluster formation, ribociclib treatment alone", "setting": "[1]; no TTFields", "value": "did not increase"},
      {"measurement": "G1-S arrest", "setting": "LN428 cells", "value": "effective G1-S arrest"}
    ]}
  ]
}
